Test results published in patent US7354711B2, “Methods for inhibiting immunostimulatory DNA associated responses” (University of Iowa Research Foundation, priority 1997, dated 2008).

What was measured:
WEHI 231 cells [1] = assay: Inhibition of CpG-ODN 1760 protection against α-sIgM-induced inhibition of [3H] thymidine uptake; type: cell-based, mouse; settings: at nanomolar concentrations; 10 μg/mL α-sIgM, 6 μg/mL ODN 1760
Description: The assay of [^3H] Thymidine incorporation was carried out as follows. WEHI 231 cells (200 μL at 2×10^5/milliliter, in duplicate or triplicate) were incubated in a 96-well plate (Costar, Cambridge Mass.). Additions were made as indicated. After incubating for 16 hours, 0.5 μCi [methyl-^3H] thymidine (2 Ci/millimole, DuPont NEN, Boston Mass.) was added to each well, and the cells were incubated for another 4 hours. Cellular DNA was then captured onto glass fiber filters (Whatman 934AH) using a cell harvester (Brandel, Gaithersberg Md.). The filters were dried, placed into plastic scintillation vials with 10 milliliters of scintillation cocktail (EconoSafe, Research Products International, Mount Prospect Ill.), and counted in a liquid scintillation counter (Beckman LS-3133 T). The ^3H recovered on the filter was expressed as a fraction of the ^3H added.
Referring to experiments summarized in FIG. 1, WEHI 231 cells (ca. 2×10^5 per milliliter) were incubated for 16 hours at 37° C. with 10 μgrams/milliliter α-sIgM, 6 μgrams/milliliter ODN 1760, and the indicated concentration of the compound. After 16 hours, 0.5 μCi [^3H] thymidine was added. After 4 more hours incubation, the cellular DNA was harvested onto glass fiber filters. The dry filters were counted in a liquid scintillation counter.
Each experimental point was the mean of at least duplicate measurements.
Referring to the experiments summarized in FIG. 3, 10 μgrams/milliliter α-sIgM and the indicated concentrations of ODN 1760 and quinacrine were added simultaneously to WEHI 231 cells. Thymidine incorporation was estimated at 16 hours as described for Example 1.
Referring to the experiments summarized in FIG. 4, WEHI 231 cells were incubated with α-sIgM and ODN 1760. At times thereafter 0.1 μM quinacrine was added (data shown in the left three bars). Cells were incubated with 10 μgrams/milliliter (α-sIgM and ODN 1760 (6 μgrams/milliliter, phosphorothioate or a phosphodiester ODN with the same sequence as 1760 (PD ODN) (30 μM at time 0 hours and 8 hours; data represented in right six bars in FIG. 4). [^3H] thymidine incorporation was estimated at 16 hours.
The symbol — indicates no change. Me and Et indicate —CH3 and —CH2CH3 respectively. Aromatic substituents are in the para position except as indicated. The activity is —log10 of the concentration (M) required for half maximal inhibition of CpG-ODN effect on [^3H] thymidine uptake in the presence of α-sIgM.

WEHI 231 cells [2] = assay: CpG-ODN-induced IL-6 synthesis (ELISA); type: cell-based, mouse; settings: 30 nM
Description: The assay of IL6 was generally carried out as follows. […] After 24 hours, the IL-6 content of the supernatant was assayed by enzyme-linked immunoassay using two monoclonal antibodies in a sandwich technique as described by the manufacturer, using standards supplied (PharMingen, San Diego Calif.).

7TD1 cells = assay: Inhibition of 7TD1 cell growth; type: cell-based, mouse
Description: One particularly useful cell line for the assay of immunostimulatory DNA action is the mouse-mouse hybridoma plasma cell line 7TD1(ATTC #CRL 1851), which requires exoqenous IL-6 for growth, and has been used to characterize and assay IL-6 (Papadopolous et al., 1995. J. Clin. Lab. Anal. 9:234-7; Krakauer, 1993. J. Immunoassay 14:267-77).
The 7TD1 cells were grown in RPMI 1640 supplemented with 10% fetal bovine serum (heat inactivated at 65° C., 1 hour), 0.3 grams/Liter L-glutamine, 50 milligrams/Liter gentamycin, 0.05 mM 2-mercaptoethanol, and 10 units per milliliter murine IL-6 in a 37° C. humid atmosphere with 5% CO2. Viable 7TD1 cells were counted in a hemocytometer chamber in duplicate after dilution with 0.4% trypan blue.
The 7TD1 cells were incubated for five days and were washed twice with medium to remove IL-6, and resuspended at 2×10^4 per milliliter in medium. Cell counts were performed and the percent inhibition of growth was computed. The term “anti” refers to 40 nanograms/milliliter neutralizing antibody to IL-6.

human mononuclear cells = assay: ODN 1760-induced [3H] thymidine incorporation in human mononuclear cells; type: cell-based; settings: unfractionated human peripheral blood cells, four days
Description: [^3H] thymidine incorporation (18 hour pulse) was then measured. […] Thymidine incorporation for untreated samples was less than 0.05%. Samples from three donors were averaged, and error bars indicate 1 standard deviation.

[3] = test system: human peripheral blood mononuclear cells (PBMC); assay: ODN 1760-induced IL-6 production in human peripheral blood mononuclear cells; type: cell-based; settings: 24 hours
Description: Referring to the experiments summarized in FIG. 9, human peripheral blood mononuclear cells (PBMC) from three donors were incubated with or without ODN 1760 and the indicated concentration of test compound. After 24 hours, the concentration of IL-6 was determined in the supernatant. The figure indicates the percentage of IL-6 in reference to ODN-treated cells. The IL-6 amounts for control sample per donor were as follows: donor 1, 203 picograms/milliliter; donor 2, 71.5 picograms/milliliter; donor 3, 465 picograms/milliliter. IL-6 measured from untreated cells was 0-21 picograms/milliliter. Results from the three donors were averaged, and error bars indicate 1 standard deviation.

[4] = test system: multi-drug resistance pump; assay: Potency with inhibition of the multi-drug resistance pump; type: cell-based
[5] = 6 μg/mL ODN 1760 + 1 μg chloroquine (so in the source)
[6] = 6 μg/mL ODN 1760 + 3μ chloroquine (so in the source)

| Molecule | Inhibition of the CpG-ODN effect (FIG. 1) (WEHI 231 cells [1]) | Reversal of ODN 1760 effect on IL-6 elaboration (WEHI 231 cells [2]) | 7TD1 cells/μL (7TD1 cells; [5]) [cells/μL] | % Growth Inhibition (7TD1 cells; [5]) [%] | 7TD1 cells/μL (7TD1 cells; [6]) [cells/μL] | % Growth Inhibition (7TD1 cells; [6]) [%] | 7TD1 cells/μL (7TD1 cells; 10 μg/mL IL-6 + 1 μM compound) [cells/μL] | % Growth Inhibition (7TD1 cells; 10 μg/mL IL-6 + 1 μM compound) [%] | % Growth Inhibition (7TD1 cells; 10 μg/mL IL-6 + 3 μM compound) [%] | Effect on IL-6-induced growth (7TD1 cells; 7TD1 cells, IL-6) | Effect on growth stimulation by CpG-ODN (7TD1 cells; 7TD1 cells, ODN 1760) | Effect on ODN 1760-induced thymidine incorporation (FIG. 8) (human mononuclear cells) | Effect on ODN 1760-induced IL-6 production (FIG. 9) [3] | Change of potency on inhibition of the multi-drug resistance pump [4] | 7TD1 cells/μL (7TD1 cells; 10 μg/mL IL-6 alone, five days) [cells/μL] |
| --- | --- | --- | --- | --- | --- | --- | --- | --- | --- | --- | --- | --- | --- | --- | --- |
| CCN(CC)CCCC(C)Nc1ccnc2cc(Cl)ccc12 (stereo not drawn) [chloroquine] | completely inhibited | completely reversed | 7 | 98.1 | 10 | 97.5 | 610 | 31.2 | 38.3 | little effect | blocked | inhibited | inhibited | magnified |  |
| IL-6: murine IL-6 purchased from PharMingen (protein, UniProt P08505 25-211, looked up) Interleukin-6: FPTSQVRRGDFTEDTTPNRPVYTTSQVGGLITHVLWEIVEMRKELCNGNSDCMNNDDALAENNLKLPEIQRNDGCYQTGYNQEICLLKISSGLLEYHSYLEYMKNNLKDNKKDKARVLQRDTETLIHIFNQEVKDLHKIVLPTPISNALLTDKLESQKEWLRTKTIQFILKSLEEFLKVTLRSTRQT |  |  |  |  |  |  |  |  |  |  |  |  |  |  | 887 |
